Source: patent US20080318783A1, “Use of abscisic acid seed treatment to enhance corn emergence after early planting” (priority 2007, published 2008)

Columns and labels:
Format in all cases: in vivo, Zea mays
Corn seed (Hughes 5813) = test: Seed treatment with ABA and stimulators of guanylate cyclase, cold damage during germination
Procedure: Corn seed (Hughes 5813) was treated with sodium ABA salt as described under Example 3. ABA rates of 0 and 20 ug/seed were applied either alone or with compounds that are selective and potent activators of soluble guanylate cyclase in animal and plant cells. These agent are YC-1 (3-(5′-hydroxymethyl-2′-furyl)-1-benzylindazole) and BAY 41-2272 (5-cyclopropyl-2-[1-(2-fluoro-benzyl)-1H-pyrazolo[3,4-b]pyridine-3-yl]pyrimidin-4-ylamine).

[1] = test system: Corn ("Hughes High" variety) seedlings; test: Dip treatment of 2-day old corn seedlings, cold damage after 0° C. for 4 days (rolled towels); settings: for Adventitious root growth (%) / Destroyed roots (%) / Lethal shoot (%): ~30 s, 0° C. 4 days, scored 3 days later
Procedure: Corn (“Hughes High” variety) was germinated in the dark in moist rolled towels at 25° C. for 2 days. Seedlings were selected that were undamaged, with a radicle of 1-2 cm and a coleoptile of 0.5 to 1 cm in length. Solutions in water with 5% ethanol were made with different concentrations of ABA and PBI-429. The seedlings were dipped in the solutions with gentle agitation for approximately 30 seconds and drained. The seedlings were placed on moist towels, gently rolled and held at 18° C. for 16 hours. Then the rolled towels were packed in ice for four days. After the chilling period, the rolled towels were blotted to remove excess water and transferred to a 25° C. chamber. Seedling damage was scored 3 days later. Lethal injury of the shoot consisted of either destruction of the mesocotyl or splitting or reduction of the coleoptile judged sufficient to prevent emergence of seedlings in the field (although this trial was conducted in towels). Seedlings with destroyed roots had no living primary or seminal roots. Seedlings with adventitious root growth from the mesocotyl were counted.

Corn seed (Hughes 1883) [2] = test: Soil test, standard delayed chilling (severe chilling after 2 days germination); settings: for Strong seedlings (%) / Viable seedlings (%): soil, 2 days germination, then 1° C. 4 days
Procedure: (§1) Corn seed (Hughes 1883) was treated with ABA ammonium salt as described under Example 2. ABA rates of 0, 5, 10 and 25 g/cwt were applied.
(§2) The seed was planted in plastic boxes containing lkg of typical agricultural silt loam. Fifty seeds were planted 3 cm deep in each plastic box, and the soil in the box was adjusted to 23% soil moisture (wet-weight basis). Two replications of the experiment were performed. Two kinds of cold tolerance assays were conducted, “standard delayed chilling” and “chilling at spiking.” The boxes for the standard delayed chilling were […] and transferred to 1° C. for four days. Boxes for the “chilling at spiking” treatment were allowed to germinate at 25° C. until the coleoptiles were first observed emerging from the soil. This common point of development varied from 3 to 6 days depending upon the dose of ABA. Then these boxes too were transferred to the 1° C. chamber for four days.
(§3) After the cold treatment the boxes were moved to the 25° C. chamber for one week. The soil was washed from the seedlings and each seedling scored for damage as described under Example 2. “Viable seedlings” were seedlings capable of surviving under typical field conditions.

[3] = test system: "Hughes High" hybrid corn seed; test: Seed treatment with ABA, cold damage (ice, 4 days) during germination in moist towels; settings: 48 h at 25° C., then ice 4 days
Procedure: ABA was applied to corn seed at 0, 1, 5, 25 and 125 g/cwt (seed weight basis). The ABA was first converted to the sodium salt to render it soluble before making up the experimental seed treatment slurries. The treatments were made up in 3 ml samples of an aqueous slurry. All of the seed treatment slurry samples contained CF-Clear film-forming agent and Colorcoat Red (Becker Underwood), each at loz/cwt, and 0.167 oz/cwt Maxim XL fungicide (Syngenta). The slurry application volume was 20 oz/cwt (cwt=100 lbs of seed). One hundred gram samples of “Hughes High” hybrid corn seed were treated with the experimental slurries using a Hege 11 seed treater with a six-inch bowl.
Three replications of 50 seeds each were planted were planted in moist towels and germinated in the dark at 25° C. for 48 hours. The rolled towels were then packed in ice for 4 days. After the cold period the towels were blotted and germination continued until the seedlings were large enough so that each seedling could be scored. In the case of the 125 g rate, this took 2 weeks. Seedling organs were scored independently for damage to the primary root, seminal roots, mesocotyl, coleoptile and the scutellar node.

Corn seed (Hughes 1883) [4] = test: Soil test, chilling at spiking (chilling at point of initial emergence); settings: for Strong seedlings (%) / Viable seedlings (%): soil, 1° C. 4 days applied at initial emergence (spiking)
Procedure: as §1, §2, §3

[5] = Bay 41-2272 1 μg/seed, ABA 0 μg/seed
[6] = Bay 41-2272 10 μg/seed, ABA 0 μg/seed
[7] = ABA ammonium salt seed treatment 5 g/cwt
[8] = ABA ammonium salt seed treatment 10 g/cwt
[9] = ABA ammonium salt seed treatment 25 g/cwt
[10] = ABA (sodium salt) seed treatment 1 g/cwt
[11] = ABA (sodium salt) seed treatment 5 g/cwt
[12] = ABA (sodium salt) seed treatment 25 g/cwt
[13] = ABA (sodium salt) seed treatment 125 g/cwt
[14] = ABA (sodium salt) 20 μg/seed alone, sGC activator 0 μg/seed

In the case of `Nc1nc(-c2nn(Cc3ccccc3F)c3ncccc23)ncc1C1CC1` [Bay 41-2272, 5-cyclopropyl-2-[1-(2-fluoro-benzyl)-1H-pyrazolo[3,4-b]pyridine-3-yl]pyrimidin-4-ylamine], the “Percent Strong Seedlings” value (Corn seed (Hughes 5813); [5]) is reported as 1%, the “Percent Viable Seedlings” value (Corn seed (Hughes 5813); [5]) is reported as 65% and the “Percent Strong Seedlings” value (Corn seed (Hughes 5813); [6]) is reported as 0%. The “Percent Viable Seedlings” value (Corn seed (Hughes 5813); [6]) was 64%.

For `OCc1ccc(-c2nn(Cc3ccccc3)c3ccccc23)o1` [YC-1, 3-(5′-hydroxymethyl-2′-furyl)-1-benzylindazole], the “Percent Strong Seedlings” value (Corn seed (Hughes 5813); YC-1 1 μg/seed, ABA 0 μg/seed) was 0%, the “Percent Viable Seedlings” value (Corn seed (Hughes 5813); YC-1 1 μg/seed, ABA 0 μg/seed) was 44% and the “Percent Strong Seedlings” value (Corn seed (Hughes 5813); YC-1 10 μg/seed, ABA 0 μg/seed) was 4%. The “Percent Viable Seedlings” value (Corn seed (Hughes 5813); YC-1 10 μg/seed, ABA 0 μg/seed) was 46%.

For S-(+)-abscisic acid [ABA], the “Adventitious root growth (%)” value ([1]; ABA dip 10 ppm) was 7%, the “Destroyed roots (%)” value ([1]; ABA dip 10 ppm) was 86% and the “Lethal shoot (%)” value ([1]; ABA dip 10 ppm) was 62%. For the same compound, the “Adventitious root growth (%)” value ([1]; ABA dip 100 ppm) was 20%, the “Destroyed roots (%)” value ([1]; ABA dip 100 ppm) was 84% and the “Lethal shoot (%)” value ([1]; ABA dip 100 ppm) was 47%. The “Adventitious root growth (%)” value ([1]; ABA dip 1000 ppm) was 89%, the “Destroyed roots (%)” value ([1]; ABA dip 1000 ppm) was 48% and the “Lethal shoot (%)” value ([1]; ABA dip 1000 ppm) was 11%. The “Protection of seedlings from cold injury (in words)” value ([1]; applied to the seedling prior to cold stress) was “can provide protection from injury, and stimulate adventitious root growth”, the “Strong seedlings (%)” value (Corn seed (Hughes 1883) [2]; [7]) was 53% and the “Viable seedlings (%)” value (Corn seed (Hughes 1883) [2]; [7]) was 99.5%. For the same compound, the “Strong seedlings (%)” value (Corn seed (Hughes 1883) [2]; [8]) was 96%, the “Viable seedlings (%)” value (Corn seed (Hughes 1883) [2]; [8]) was 99.5% and the “Strong seedlings (%)” value (Corn seed (Hughes 1883) [2]; [9]) was 100%. For the same compound, the “Viable seedlings (%)” value (Corn seed (Hughes 1883) [2]; [9]) was 100%, the “Protection from cold in field soil (in words)” value (Corn seed (Hughes 1883) [2]; delivered as a seed treatment) was “protection of germinating seeds and young seedlings in field soil” and the “Seedlings with lethal root injury (%)” value [3, 10] was 23.3%. The “Seedlings with lethal shoot injury (%)” value [3, 10] was 19.3%, the “Strong seedlings (%)” value [3, 10] was 18.0% and the “Seedlings with lethal root injury (%)” value [3, 11] was 0.7%. The “Seedlings with lethal shoot injury (%)” value [3, 11] was 8.0%, the “Strong seedlings (%)” value [3, 11] was 88.7% and the “Seedlings with lethal root injury (%)” value [3, 12] was 0.0%. For the same compound, the “Seedlings with lethal shoot injury (%)” value [3, 12] was 15.5%, the “Strong seedlings (%)” value [3, 12] was 95.3% and the “Seedlings with lethal root injury (%)” value [3, 13] was 0.7%. For the same compound, the “Seedlings with lethal shoot injury (%)” value [3, 13] was 11.4%, the “Strong seedlings (%)” value [3, 13] was 81.3% and the “Percent Strong Seedlings” value (Corn seed (Hughes 5813); [14]) was 67%. The “Percent Viable Seedlings” value (Corn seed (Hughes 5813); [14]) was 100%, the “Strong seedlings (%)” value (Corn seed (Hughes 1883) [4]; [7]) was 0% and the “Viable seedlings (%)” value (Corn seed (Hughes 1883) [4]; [7]) was 5%. For the same compound, the “Strong seedlings (%)” value (Corn seed (Hughes 1883) [4]; [8]) was 18%, the “Viable seedlings (%)” value (Corn seed (Hughes 1883) [4]; [8]) was 62% and the “Strong seedlings (%)” value (Corn seed (Hughes 1883) [4]; [9]) was 10%. The “Viable seedlings (%)” value (Corn seed (Hughes 1883) [4]; [9]) was 23% and the “Protection of seedlings from cold damage (in words)” value (Corn seed (Hughes 1883) [4]; seed treatment, chilling at spiking) was “results not only from delay of germination, but from induction of cold tolerance in the tissue”.
